Tests used:
survivin = molecular target: T1, survivin (Homo sapiens, UniProt O15392); test: Biolayer interferometry (reverse), immobilized survivin, EZH2 peptide as analyte; type: binding; conditions: peptide 21.2 µM
T1 construct: transferred to the survivin1-142 construct used in the present study; His8 tag (pHIS8 vector, thrombin-cleavable); made in house; host or cells: E. coli BL21(DE3) star
Method: Other phases in the reverse experiment follow the same parameters as in non-reverse experiments mentioned above.
Δλ(t) values were converted to dimensionless quantities by dividing the wavelength shifts with 1 nm prior to the analysis. To develop the model, we tentatively assumed Langmuir’s 1:1 model.[85] The kinetic modelling was performed with the pymc3 python package[66] using a Bayesian model: p(KD,app|lower=10^−15,upper=10^−3)=1/upper−lower p(k−1|lower=10^−20,upper=10)=1/upper−lower k1=k−1/KD,app p(A|lower=10^−6,upper=10)=1/upper−lower p(ε|lower=10^−6,upper=1)=1/upper−lower p(Δλ(0)|μ=⟨Δλi⟩,σ=1/10∑(Δλi−⟨Δλi⟩)^2/n)=1/2πσe^−1/2σ(Δλ(t)−μ)^2;Δλ(0)∈[10^−20,+∞]
The association and dissociation phases were modelled simultaneously, and the probability of wavelength shift during association phase was modeled as: p(Δλ(t)|μ=Ac/KD,app+c(1−e^−(k1c+k−1)t),σ=ε)=1/2πσe^−1/2σ(Δλ(t)−μ)^2
The probability of wavelength shift during the dissociation phase was modelled as: p(Δλ(t)|μ=Δλ(0)e^−k−1t,σ=ε)=1/2πσe^−1/2σ(Δλ(t)−μ)^2, where A and k1 are the amplitude and rate constant of the exponential association process, respectively. The concentration of the analyte is c and KD,app is the apparent dissociation constant. The dissociation rate constant is marked with k-1. ε represents the standard deviation of Δλ(t) . […]

[U-15N]-survivin = molecular target: T2, [U-15N]-survivin (Homo sapiens, UniProt O15392); test: NMR titration of [U-15N]-survivin with PRC2-derived peptides; type: binding
T2 construct: transferred to the survivin1-142 construct used in the present study; His8 tag (pHIS8 vector, thrombin-cleavable); made in house; host or cells: E. coli BL21(DE3) star, M9 medium with 15NH4Cl
T2 sequence (O15392 whole entry): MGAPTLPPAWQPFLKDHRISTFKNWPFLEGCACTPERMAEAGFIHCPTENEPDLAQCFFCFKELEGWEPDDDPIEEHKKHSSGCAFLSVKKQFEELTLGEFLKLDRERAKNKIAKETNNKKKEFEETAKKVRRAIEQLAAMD
Method: Uniformly [U] labeled [U-^15N] survivin was produced in H2O-based M9 medium[69] containing ^15NH4Cl as the sole nitrogen and in case of or [U-^15N,^13C] survivin D-(^13C)-glucose was additionally added as the sole carbon source, respectively (Sigma-Aldrich). Expression was induced with 0.5 mM IPTG and continued for 20–22 h at 15°C. Cell harvesting and subsequent purification followed the same protocol as for unlabeled survivin.
NMR measurements were performed on Bruker (Fällanden, Switzerland) AvanceIII 800 MHz spectrometers running Topspin 3.5 or 3.6, respectively, equipped with cryogenically cooled triple resonance probes. All NMR experiments were performed in NMR buffer (50 mM Tris, 150 mM NaCl, 1 mM DTT, pH 7.5) and at 298 K. The sequence-specific backbone assignment of survivin1-117 was taken from previously published assignment,[50] and transferred to the survivin1-142 construct used in the present study. Existing resonance assignments were confirmed, and additional resonances were assigned in a sequence-specific manner by the following experiments: [^1H,^15N]-TROSY HSQC,[70] BEST-TROSY-type HNCA and HNCO experiments.[71]
The peptides were synthetized and purified to 95% by Biomatik. The peptides were titrated into ^15N labelled survivin (0.3 mM). Standard 2D [^15N,^1H]-SOFAST-HMQC[72] experiments were recorded with inter-scan delays of 200 ms and 1025 x 256 complex points for the ^1H and ^15N dimensions, respectively, for the titrations of the different peptides with [U-^15N] survivin.
For the global analysis, the NMR signal strength was quantified by summing the 200 highest values in each 2D NMR spectrum to ensure that all peaks corresponding to the different amino acid residues in survivin are potentially covered. The titration curve was modelled using a Bayesian machine learning approach using the python library pymc3.[66] The logistic function was chosen due to computational convenience. The most important parameter of this function was coined “critical peptide concentration (cpc)” and its logarithm was modelled using a uniform a priori distribution between −10 and 1. p(log10cpc|lower=−10,upper=1)=1/upper−lower
The modelling errors related to the choice of function affect the analysis of different peptides similarly. Therefore, the relative magnitude of cpc in comparison is more reliable than the absolute magnitude of cpc itself. The concentration values were converted to dimensionless quantities by dividing with 1 mM and the NMR signal intensity was normalized for the concentration range studied.
A deterministic sigmoid (logistic) function was used to model signal decay as a function of peptide concentration. Additional a priori assumptions of the function parameters were the following: p(k|lower=−10,upper=10)=1/upper−lower p(L|lower=−3,upper=3)=1/upper−lower p(b|lower=−10,upper=10)=1/upper−lower
1000 posterior samples were collected in four parallel chains using the No-U-Turn sampling algorithm (NUTS) after 2000 tuning steps/chain.[83] The default sampling parameters were used except for “target accept” parameter, which was increased to 0.95. For the final analysis the 1000 samples from the four chains were merged to yield 4000 samples.

T1 sequence (O15392 whole entry): as above

VELVNALGQYNDDDDDDDGD DPEEREEKQKDLEDHRDDKE [EZH2_172-211, PRC2-derived peptide, EZH2 residues 172–211, synthesized by Biomatik]
k1 (association rate constant) (survivin; posterior mean ± SD): 45 ± 0.59 M⁻¹ s⁻¹
A (amplitude of association) (survivin; posterior mean, SD 1.2×10-3): 0.13 nm
critical peptide concentration ([U-15N]-survivin; 300 μM survivin (monomer), pH 7.5, 298 K): 2.1 µM
<L> ([U-15N]-survivin; logistic function parameter L, posterior mean (Table S10)): 0.68
<b> ([U-15N]-survivin; logistic function parameter b, posterior mean (Table S10)): 0.32
<k> ([U-15N]-survivin; logistic function parameter k, posterior mean (Table S10)): -1.04
binding strength from slow exchange regime (in words) ([U-15N]-survivin; new resonances at high peptide concentrations, 298 K): strong binding in the low nanomolar range or below

Source: publication PMC10391610, “Survivin prevents the polycomb repressor complex 2 from methylating histone 3 lysine 27” (iScience, 2023)
